Assay results taken from ChEMBL document CHEMBL5365500, “Development and Antibacterial Properties of 4-[4-(Anilinomethyl)-3-phenylpyrazol-1-yl]benzoic Acid Derivatives as Fatty Acid Biosynthesis Inhibitors” (J Med Chem, 2023).
In brackets after ≈: the same amount, converted by molar mass.

Assays:
Type in all cases: functional
Settings in all cases: time 20-24 hrs
[1] = system: Staphylococcus aureus; assay: Antimicrobial activity against Staphylococcus aureus ATCC 25923 assessed as inhibition of visible growth measured after 20 to 24 hrs incubation by CLSI method
[2] = system: Staphylococcus aureus; assay: Antimicrobial activity against antibiotic-resistant Staphylococcus aureus ATCC BAA-2312 assessed as inhibition of visible growth measured after 20 to 24 hrs incubation by CLSI method
[3] = system: Staphylococcus aureus; assay: Antimicrobial activity against antibiotic-resistant Staphylococcus aureus ATCC 33591 assessed as inhibition of visible growth measured after 20 to 24 hrs incubation by CLSI method
[4] = system: Staphylococcus aureus; assay: Antimicrobial activity against antibiotic-resistant Staphylococcus aureus ATCC 33592 assessed as inhibition of visible growth measured after 20 to 24 hrs incubation by CLSI method
[5] = system: Staphylococcus aureus; assay: Antimicrobial activity against antibiotic-resistant Staphylococcus aureus ATCC 700699 assessed as inhibition of visible growth measured after 20 to 24 hrs incubation by CLSI method
[6] = system: Staphylococcus epidermidis; assay: Antimicrobial activity against antibiotic-resistant Staphylococcus epidermidis ATCC 700296 assessed as inhibition of visible growth measured after 20 to 24 hrs incubation by CLSI method
[7] = system: Enterococcus faecalis; assay: Antimicrobial activity against antibiotic-susceptible Enterococcus faecalis ATCC 29212 assessed as inhibition of visible growth measured after 20 to 24 hrs incubation by CLSI method
[8] = system: Enterococcus faecalis; assay: Antimicrobial activity against antibiotic-resistant Enterococcus faecalis ATCC 51299 assessed as inhibition of visible growth measured after 20 to 24 hrs incubation by CLSI method
[9] = system: Enterococcus faecium; assay: Antimicrobial activity against antibiotic-resistant Enterococcus faecium ATCC 700221 assessed as inhibition of visible growth measured after 20 to 24 hrs incubation by CLSI method
[10] = system: Bacillus subtilis; assay: Antimicrobial activity against antibiotic-resistant Bacillus subtilis ATCC 6623 assessed as inhibition of visible growth measured after 20 to 24 hrs incubation by CLSI method

Row | SMILES | MIC [1] [µg/mL] | MIC [2] [µg/mL] | MIC [3] [µg/mL] | MIC [4] [µg/mL] | MIC [5] [µg/mL] | MIC [6] [µg/mL] | MIC [7] [µg/mL] | MIC [8] [µg/mL] | MIC [9] [µg/mL] | MIC [10] [µg/mL]
1 | O=C(O)c1ccc(-n2cc(CNc3cc(Cl)ccc3Cl)c(-c3cccc(F)c3)n2)cc1 | 32 (≈ 70.1 µM) | 16 (≈ 35.1 µM) | 32 (≈ 70.1 µM) | 32 (≈ 70.1 µM) | 32 (≈ 70.1 µM) | 32 (≈ 70.1 µM) | 32 (≈ 70.1 µM) | 32 (≈ 70.1 µM) | 32 (≈ 70.1 µM) | 8 (≈ 17.5 µM)
2 | O=C(O)c1ccc(-n2cc(CNc3cc(C(F)(F)F)cc(C(F)(F)F)c3)c(-c3ccc(F)c(F)c3)n2)cc1 | 1 (≈ 1.85 µM) | 0.5 (≈ 0.924 µM) | 0.5 (≈ 0.924 µM) | 1 (≈ 1.85 µM) | 1 (≈ 1.85 µM) | 4 (≈ 7.39 µM) | 2 (≈ 3.69 µM) | 2 (≈ 3.69 µM) | 2 (≈ 3.69 µM) | 0.5 (≈ 0.924 µM)
3 | O=C(O)c1ccc(-n2cc(CNc3cc(Cl)cc(Cl)c3)c(-c3ccc(F)cc3)n2)cc1 | 1 (≈ 2.19 µM) | 1 (≈ 2.19 µM) | 1 (≈ 2.19 µM) | 1 (≈ 2.19 µM) | 2 (≈ 4.38 µM) | 2 (≈ 4.38 µM) | 4 (≈ 8.77 µM) | 4 (≈ 8.77 µM) | 4 (≈ 8.77 µM) | 0.5 (≈ 1.1 µM)
4 | O=C(O)c1ccc(-n2cc(CNc3cc(Cl)cc(C(F)(F)F)c3)c(-c3cccc(F)c3)n2)cc1 | 2 (≈ 4.08 µM) | 1 (≈ 2.04 µM) | 1 (≈ 2.04 µM) | 1 (≈ 2.04 µM) | 2 (≈ 4.08 µM) | 4 (≈ 8.17 µM) | 4 (≈ 8.17 µM) | 2 (≈ 4.08 µM) | 2 (≈ 4.08 µM) | 0.5 (≈ 1.02 µM)
5 | O=C(O)c1ccc(-n2cc(CNc3ccc(Oc4ccccc4)cc3)c(-c3ccc(F)cc3)n2)cc1 | 2 (≈ 4.17 µM) | 2 (≈ 4.17 µM) | 1 (≈ 2.09 µM) | 4 (≈ 8.34 µM) | 2 (≈ 4.17 µM) | 4 (≈ 8.34 µM) | 8 (≈ 16.7 µM) | 4 (≈ 8.34 µM) | 4 (≈ 8.34 µM) | 2 (≈ 4.17 µM)
6 | O=C(O)c1ccc(-n2cc(CNc3cc(Cl)c(F)c(Cl)c3)c(-c3ccc(F)cc3)n2)cc1 | 1 (≈ 2.11 µM) | 1 (≈ 2.11 µM) | 0.5 (≈ 1.05 µM) | 1 (≈ 2.11 µM) | 2 (≈ 4.22 µM) | 2 (≈ 4.22 µM) | 8 (≈ 16.9 µM) | 4 (≈ 8.43 µM) | 4 (≈ 8.43 µM) | 1 (≈ 2.11 µM)
7 | O=C(O)c1ccc(-n2cc(CNc3ccc(F)c(Cl)c3F)c(-c3ccc(F)c(F)c3)n2)cc1 | 4 (≈ 8.41 µM) | 4 (≈ 8.41 µM) | 2 (≈ 4.2 µM) | 4 (≈ 8.41 µM) | 4 (≈ 8.41 µM) | 8 (≈ 16.8 µM) | 16 (≈ 33.6 µM) | > 32 | 4 (≈ 8.41 µM) | 1 (≈ 2.1 µM)
8 | O=C(O)c1ccc(-n2cc(CNc3cccc(C(F)(F)F)c3)c(-c3ccc(F)cc3)n2)cc1 | 8 (≈ 17.6 µM) | 4 (≈ 8.78 µM) | 2 (≈ 4.39 µM) | 8 (≈ 17.6 µM) | 4 (≈ 8.78 µM) | 8 (≈ 17.6 µM) | 16 (≈ 35.1 µM) | 16 (≈ 35.1 µM) | 8 (≈ 17.6 µM) | 2 (≈ 4.39 µM)
9 | O=C(O)c1ccc(-n2cc(CNc3cccc(C(F)(F)F)c3)c(-c3ccc(F)c(F)c3)n2)cc1 | 4 (≈ 8.45 µM) | 2 (≈ 4.22 µM) | 1 (≈ 2.11 µM) | 4 (≈ 8.45 µM) | 8 (≈ 16.9 µM) | 8 (≈ 16.9 µM) | 8 (≈ 16.9 µM) | 8 (≈ 16.9 µM) | 4 (≈ 8.45 µM) | 1 (≈ 2.11 µM)
10 | O=C(O)c1ccc(-n2cc(CNc3ccc(Oc4ccccc4)cc3)c(-c3cccc(F)c3)n2)cc1 | 4 (≈ 8.34 µM) | 2 (≈ 4.17 µM) | 2 (≈ 4.17 µM) | 4 (≈ 8.34 µM) | 4 (≈ 8.34 µM) | 8 (≈ 16.7 µM) | 8 (≈ 16.7 µM) | 8 (≈ 16.7 µM) | 4 (≈ 8.34 µM) | 2 (≈ 4.17 µM)
11 | Cc1cc(NCc2cn(-c3ccc(C(=O)O)cc3)nc2-c2ccc(F)cc2)ccc1Br | 4 (≈ 8.33 µM) | 2 (≈ 4.16 µM) | 2 (≈ 4.16 µM) | 4 (≈ 8.33 µM) | 2 (≈ 4.16 µM) | 4 (≈ 8.33 µM) | 16 (≈ 33.3 µM) | 8 (≈ 16.7 µM) | 8 (≈ 16.7 µM) | 1 (≈ 2.08 µM)
12 | O=C(O)c1ccc(-n2cc(CNc3ccc(F)c(C(F)(F)F)c3)c(-c3ccc(F)cc3)n2)cc1 | 4 (≈ 8.45 µM) | 4 (≈ 8.45 µM) | 2 (≈ 4.22 µM) | 4 (≈ 8.45 µM) | 8 (≈ 16.9 µM) | 8 (≈ 16.9 µM) | 16 (≈ 33.8 µM) | 16 (≈ 33.8 µM) | 16 (≈ 33.8 µM) | 2 (≈ 4.22 µM)
13 | O=C(O)c1ccc(-n2cc(CNc3cccc(Br)c3)c(-c3ccc(F)cc3)n2)cc1 | 8 (≈ 17.2 µM) | 8 (≈ 17.2 µM) | 4 (≈ 8.58 µM) | 16 (≈ 34.3 µM) | 8 (≈ 17.2 µM) | 16 (≈ 34.3 µM) | 32 (≈ 68.6 µM) | 32 (≈ 68.6 µM) | 16 (≈ 34.3 µM) | 4 (≈ 8.58 µM)
14 | O=C(O)c1ccc(-n2cc(CNc3ccc(Cl)cc3)c(-c3ccc(F)cc3)n2)cc1 | > 32 | 32 (≈ 75.9 µM) | 4 (≈ 9.48 µM) | > 32 | 8 (≈ 19 µM) | > 32 | > 32 | > 32 | > 32 | 4 (≈ 9.48 µM)
